Data reported in US12208108B2, “Drug targets of delayed aging and human brain diseases” (Texas Tech University System, priority 2016, dated 2025).
Marks after values point to notes of the source that are not given here.

How the values were obtained:
SHSY5Y cells = assay: ATP levels in isolated mitochondria; type: cell-based, Human
Procedure: ATP levels. ATP levels were measured in mitochondria isolated from SHSY5Y neurons of control and experimental treatments (n=4) using the ATP determination kit (Molecular Probes) as described in Manczak et al..

GTPase-Drp1 = target: T1, GTPase-Drp1 (Homo sapiens, UniProt O00429); assay: GTPase-Drp1 activity from Drp1 IP elutes; type: cell-based
T1 construct: endogenous in cells; host or cells: SHSY5Y human neuroblastoma cells
Procedure: GTPase-Drp1 activity: To determine whether Aβ affects GTPase-Drp1 activity in cells that treated with Aβ incubation, the inventors measured GTPase-Drp1 activity from Drp1 IP elutes of all cell treatments.

[1] = system: Human Neuroblastoma (SHSY5Y) cells; assay: mRNA levels by Sybr-Green real-time RT-PCR; type: cell-based
Procedure: mRNA levels of mitochondrial dynamics, mitochondrial biogenesis and synaptic genes. Using the reagent TriZol (Invitrogen), the inventors isolated total RNA from all DDQ-treated and untreated cells. mRNA levels of mitochondrial dynamic (Drp1, Fis1, Mfn1 and Mfn2), mitochondrial biogenesis genes (PGC1α, Nrf1, Nrf2 and TFAM) and synaptic genes (PSD95, synaptophysin, synapsin 1, synapsin 2, synaptobrevin 1, synaptobrevin 2, synaptopodin, and GAP43) were measured by using Sybr-Green chemistry-based quantitative real time RT-PCR.
FIG. 3 illustrates the experimental strategy of the cell culture work and including treatments. The cells were grown in a medium (1:1 DMEM and F12, 10% FBS, lx penicillin, and streptomycin) at 37° C. in a humified incubator with a 5% CO2 environment. After seeding were allowed to grow for 24-48 hrs or until 80% confluence in six-well plates and used for experiments. The inventors used five different groups of cells—(1) untreated SHSY5Y cells; (2) SHSY5Y cells treated with DDQ (250 nM final concentration) for 24 hrs; (3) SHSY5Y cells incubated with Aβ peptide 1-42 (20 uM final concentration) for 6 hrs; (4) SHSY5Y cells treated Aβ for 6 hrs+DDQ for 24 hrs and (5) SHSY5Y cells treated DDQ for 24 hrs and Aβ for 6 hrs. Half a million SHSY5Y cells were suspended per well into six-well plates. The inventors used Aβ peptide 1-42 and DDQ 250 nM in the experiments. After treatments, the inventors harvested cells, conducted experiments to measure the levels mRNA using Sybr-Green based real-time RT-PCR, proteins using immunoblotting and immunofluorescence analysis and cell viability using MTT assay. The inventors counted the number of mitochondria by electron microscopy.
Quantification of mitochondrial dynamics, biogenesis and synaptic genes expression using real-time RT-PCR. Using the reagent TriZol (Invitrogen), the inventors isolated total RNA from control and experimental groups (FIG. 3). Using primer express Software (Applied Biosystems), the inventors designed the oligonucleotide primers for the housekeeping genes β-actin, mitochondrial structural genes; fission (Drp1 and Fis1); fusion genes (MFN1, MFN2); mitochondrial biogenesis genes PGC1a, Nrf1, Nrf2 and TFAM; and synaptic genes (PSD95, synaptophysin, synapsin 1, synapsin 2, synaptobrevin 1, synaptobrevin 2, synaptopodin, and GAP43). Using SYBR-Green chemistry-based quantitative real-time RT-PCR, the inventors measured mRNA expression of the genes mentioned above as described by Manczak et al..

[2] = Aβ + DDQ (Aβ1-42 20 μM 6 hrs, then DDQ 24 hrs) vs untreated cells
[3] = DDQ 250 nM 24 hrs vs untreated cells
[4] = Aβ + DDQ (Aβ1-42 6 hrs, then DDQ 24 hrs) vs Aβ treated cells
[5] = DDQ + Aβ (DDQ 24 hrs, then Aβ1-42 6 hrs) vs Aβ treated cells
[6] = DDQ + Aβ (DDQ 24 hrs, then Aβ1-42 6 hrs) vs untreated cells

T1 sequence (O00429 whole entry): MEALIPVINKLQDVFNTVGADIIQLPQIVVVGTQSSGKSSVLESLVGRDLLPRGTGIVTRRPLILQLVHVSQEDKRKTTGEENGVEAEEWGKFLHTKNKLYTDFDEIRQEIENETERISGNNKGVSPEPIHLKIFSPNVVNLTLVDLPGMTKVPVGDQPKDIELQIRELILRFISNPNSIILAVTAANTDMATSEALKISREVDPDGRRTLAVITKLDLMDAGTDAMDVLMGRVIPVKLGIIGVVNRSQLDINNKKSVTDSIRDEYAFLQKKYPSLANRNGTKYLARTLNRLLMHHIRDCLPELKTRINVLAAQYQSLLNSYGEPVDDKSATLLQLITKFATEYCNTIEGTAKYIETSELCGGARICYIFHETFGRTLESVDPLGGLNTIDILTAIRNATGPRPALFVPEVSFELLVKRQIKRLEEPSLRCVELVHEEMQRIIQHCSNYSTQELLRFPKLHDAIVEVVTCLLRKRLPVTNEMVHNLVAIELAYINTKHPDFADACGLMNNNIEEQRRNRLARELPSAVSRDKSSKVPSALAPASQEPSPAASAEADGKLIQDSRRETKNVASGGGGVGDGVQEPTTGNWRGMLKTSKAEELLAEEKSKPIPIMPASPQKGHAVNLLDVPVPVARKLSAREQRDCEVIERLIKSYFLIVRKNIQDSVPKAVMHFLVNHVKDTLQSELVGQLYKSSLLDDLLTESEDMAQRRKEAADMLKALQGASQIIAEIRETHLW

## CCOP(=O)(OCC)C(NCCc1ccc(O)c(O)c1)c1ccnc2ccccc12 (stereo not drawn) [DDQ, diethyl(3,4-dihydroxyphenethylamine)(quinolin-4-yl)methylphosphonate]
SHSY5Y cells; [2]
  ATP levels: Significantly increased levels
SHSY5Y cells; Aβ + DDQ (Aβ1-42 6 hrs, then DDQ 24 hrs) vs Aβ incubated cells
  ATP levels: Significantly increased ATP levels
SHSY5Y cells; [3]
  ATP levels: Significantly increased levels
SHSY5Y cells; DDQ + Aβ (DDQ 24 hrs, then Aβ1-42 6 hrs) vs Aβ incubated cells
  ATP levels: Significantly increased ATP levels
GTPase-Drp1; [2]
  GTPase-Drp1 activity: Significantly increased
GTPase-Drp1; Aβ + DDQ (Aβ1-42 6 hrs, then DDQ 24 hrs) vs cells incubated with Aβ
  GTPase-Drp1 activity: reduced
GTPase-Drp1; [3]
  GTPase-Drp1 activity: decreased levels
GTPase-Drp1; DDQ + Aβ (DDQ 24 hrs, then Aβ1-42 6 hrs) vs cells incubated with Aβ
  GTPase-Drp1 activity: reduced
[1]; [2]
  Drp1 mRNA fold changes: 1.9* fold
  Fis1 mRNA fold changes: −1.2 fold
  GAP43 mRNA fold changes: 1.1 fold
  Mfn1 mRNA fold changes: 1.4 fold
  Mfn2 mRNA fold changes: 1.3 fold
  Nrf1 mRNA fold changes: −1.7* fold
  Nrf2 mRNA fold changes: −1.3 fold
  PGC1a mRNA fold changes: −1.8* fold
  PSD95 mRNA fold changes: −1.4* fold
  Synapsin1 mRNA fold changes: 1.1 fold
  Synapsin2 mRNA fold changes: 1.1 fold
  Synaptobrevin1 mRNA fold changes: −1.1 fold
  Synaptobrevin2 mRNA fold changes: 1.0 fold
  Synaptophysin mRNA fold changes: −2.4* fold
  Synaptopodin mRNA fold changes: −1.1 fold
  TFAM mRNA fold changes: −2.0* fold
[1]; [4]
  Drp1 mRNA fold changes: −1.7* fold
  Fis1 mRNA fold changes: −2.0* fold
  GAP43 mRNA fold changes: 1.7* fold
  Mfn1 mRNA fold changes: 3.3** fold
  Mfn2 mRNA fold changes: 3.4** fold
  Nrf1 mRNA fold changes: 2.6 fold
  Nrf2 mRNA fold changes: 2.1 fold
  PGC1a mRNA fold changes: 2.5 fold
  PSD95 mRNA fold changes: 1.8* fold
  Synapsin1 mRNA fold changes: 2.1* fold
  Synapsin2 mRNA fold changes: 2.4* fold
  Synaptobrevin1 mRNA fold changes: 2.0* fold
  Synaptobrevin2 mRNA fold changes: 2.1* fold
  Synaptophysin mRNA fold changes: 1.6* fold
  Synaptopodin mRNA fold changes: 2.0* fold
  TFAM mRNA fold changes: 2.3 fold
[1]; [3]
  Drp1 mRNA fold changes: −2.2* fold
  Drp1 mRNA levels, fold decrease: 2.2 fold
  Fis1 mRNA fold changes: −4.4*** fold
  Fis1 mRNA levels, fold decrease: 4.4 fold
  GAP43 mRNA fold changes: 1.2 fold
  Mfn1 mRNA fold changes: 1.7 fold
  Mfn2 mRNA fold changes: 2.3 fold
  Nrf1 mRNA fold changes: 1.9 fold
  Nrf2 mRNA fold changes: 2.7 fold
  PGC1a mRNA fold changes: 1.5 fold
  PSD95 mRNA fold changes: 1.4 fold
  Synapsin1 mRNA fold changes: 1.0 fold
  Synapsin2 mRNA fold changes: 1.7 fold
  Synaptobrevin1 mRNA fold changes: 1.0 fold
  Synaptobrevin2 mRNA fold changes: 1.3 fold
  Synaptophysin mRNA fold changes: 1.4 fold
  Synaptopodin mRNA fold changes: 1.0 fold
  TFAM mRNA fold changes: 1.7 fold
[1]; [5]
  Drp1 mRNA fold changes: −4.6*** fold
  Fis1 mRNA fold changes: −2.5* fold
  GAP43 mRNA fold changes: 1.7* fold
  Mfn1 mRNA fold changes: 2.9** fold
  Mfn2 mRNA fold changes: 2.9** fold
  Nrf1 mRNA fold changes: 4.9 fold
  Nrf2 mRNA fold changes: 2.6 fold
  PGC1a mRNA fold changes: 3.9 fold
  PSD95 mRNA fold changes: 2.1* fold
  Synapsin1 mRNA fold changes: 2.5* fold
  Synapsin2 mRNA fold changes: 2.9** fold
  Synaptobrevin1 mRNA fold changes: 1.7* fold
  Synaptobrevin2 mRNA fold changes: 2.3* fold
  Synaptophysin mRNA fold changes: 2.4* fold
  Synaptopodin mRNA fold changes: 2.1* fold
  TFAM mRNA fold changes: 3.2 fold
[1]; [6]
  Drp1 mRNA fold changes: −2.1* fold
  Fis1 mRNA fold changes: −1.3 fold
  GAP43 mRNA fold changes: 1.1 fold
  Mfn1 mRNA fold changes: 1.2 fold
  Mfn2 mRNA fold changes: 1.1 fold
  Nrf1 mRNA fold changes: 1.1 fold
  Nrf2 mRNA fold changes: −1.1 fold
  PGC1a mRNA fold changes: −1.1 fold
  PSD95 mRNA fold changes: −1.2 fold
  Synapsin1 mRNA fold changes: 1.3 fold
  Synapsin2 mRNA fold changes: 1.8* fold
  Synaptobrevin1 mRNA fold changes: −1.4 fold
  Synaptobrevin2 mRNA fold changes: 1.0 fold
  Synaptophysin mRNA fold changes: −1.6* fold
  Synaptopodin mRNA fold changes: −1.1 fold
  TFAM mRNA fold changes: −1.5* fold
